Data published in ChEMBL document CHEMBL1137521, “In vivo growth inhibitory and anti-angiogenic effects of synthetic novel dienone cyclopropoxy curcumin analogs on mouse Ehrlich ascites tumor” (2007).
Activity calls are given as the source filed them. The rule behind the calls is not given here.

Legend:
Mus musculus [1] = assay: Growth inhibition of Swiss Albino mouse bearing EAT cells assessed as increase in life span at 100 mg/kg, ip administered on day 11 after tumor inoculation; type: functional; design: scale not given: the % may be the effect or the level left; conditions: route intraperitoneal
Mus musculus [2] = assay: Growth inhibition of Swiss Albino mouse bearing EAT cells assessed as increase in life span at 100 mg/kg, ip; type: functional; design: scale not given: the % may be the effect or the level left; conditions: route intraperitoneal
Mus musculus [3] = species: Mus musculus; assay: Antiangiogenic effect in Swiss Albino mouse bearing EAT cells assessed as decrease in microvessel density by CAM assay; type: functional, organism-based
Mus musculus [4] = assay: Growth inhibition of Swiss Albino mouse bearing EAT cells assessed as increase in median survival time at 100 mg/kg, ip; type: functional; conditions: route intraperitoneal
Mus musculus [5] = assay: Antiangiogenic effect in Swiss Albino mouse bearing EAT cells assessed as inhibition of blood vessel formation in at 100 mg/kg, ip; type: functional; conditions: route intraperitoneal
Mus musculus [6] = assay: Growth inhibition of Swiss Albino mouse bearing EAT cells assessed as decrease in ascites volume at 100 mg/kg, ip relative to control; type: functional, organism-based; design: dose 100 mg/kg
Mus musculus [7] = assay: Growth inhibition of Swiss Albino mouse bearing EAT cells assessed as reduction in cell numbers at 100 mg/kg, ip relative to control; type: functional, organism-based; design: dose 100 mg/kg
Mus musculus [8] = assay: Growth inhibition of Swiss Albino mouse bearing EAT cells assessed as increase in life span at 100 mg/kg, ip administered on day 7 after tumor inoculation; type: functional; design: scale not given: the % may be the effect or the level left; conditions: route intraperitoneal
Mus musculus [9] = assay: Growth inhibition of Swiss Albino mouse bearing EAT cells assessed as increase in life span at 100 mg/kg, ip administered on day 9 after tumor inoculation; type: functional; design: scale not given: the % may be the effect or the level left; conditions: route intraperitoneal

| SMILES | Activity (Mus musculus [1]) [%] | Activity (Mus musculus [2]) [%] | Activity (Mus musculus [3]) | Survival (Mus musculus [4]) [days] | Activity (Mus musculus [5]) | Activity (Mus musculus [6]) | Activity (Mus musculus [7]) | Activity (Mus musculus [8]) [%] | Activity (Mus musculus [9]) [%] |
| --- | --- | --- | --- | --- | --- | --- | --- | --- | --- |
| Cc1cc(/C=C/C(=O)/C=C/c2ccc(OC3CC3)c(C)c2)ccc1OC1CC1 | 28.8 | 28.8 | Active | 23.2 | 4.4 | Active | Active | – | – |
| COc1cc(/C=C/C(=O)/C=C/c2cc(OC)c(OC3CC3)c(OC)c2)cc(OC)c1OC1CC1 | – | 77.7 | Active | 32 | 2.8 | Active | Active | – | – |
| COc1cc(/C=C/C(=O)/C=C/c2ccc(OC3CC3)c(OC)c2)ccc1OC1CC1 | – | 48.8 | Active | 26.8 | 3 | Active | Active | 48.8 | – |
| O=C(/C=C/c1ccc(OC2CC2)cc1)/C=C/c1ccc(OC2CC2)cc1 | – | 34.4 | Active | 24.2 | 4.2 | Active | Active | – | 34.4 |
